From patent US6489440B1, “Cyclic compounds” (Basilea Pharmaceutica AG, priority 1998, dated 2002)
Numbered stars: 1 amine (or outer) side, 2 acyl side, 3 side chain; on linkers, the order of the positions; unused ones are H or OH. Bridge positions count the residues as written; N and C are the ends. Square brackets hold non-standard residues; d marks the D form. Peptide text beside a SMILES is read from it. * marks the point of attachment. ξ: configuration not given here. pTerphenylCO(4''-OnC5H11) = CCCCCOc1ccc(-c2ccc(-c3ccc(C(=O)*)cc3)cc2)cc1; Orn(4R-OH,5R-OH) = O=C([C@H](C[C@@H](O)[C@@H](O)N[*:3])N[*:1])[*:2]; X8 = O=C(C[C@@H](CCc1ccc(-c2ccc(OCCCc3ccccc3)cc2)cc1)N[*:2])[*:1]; hTyr(3S-OH,4S-OH) = N[C@H](C(=O)O)[C@H](O)[C@@H](O)c1ccc(O)cc1; X5 = CC(C)CCCOc1ccc(-c2ccc(CC[C@H](CC(=O)[*:1])N[*:2])cc2)cc1; X3 = CCCCCCCOc1ccc(-c2ccc(CC[C@H](CC(=O)[*:1])N[*:2])cc2)cc1; X10 = CCCCCCCCCOc1ccc2cc(CC[C@H](CC(=O)[*:1])N[*:2])ccc2c1; ξTyr(3-NO2) = NC(Cc1ccc(O)c([N+](=O)[O-])c1)C(=O)O; Pro(3S-OH,4S-Me) = C[C@H]1CN[C@H](C(=O)O)[C@H]1O; X6 = CCCCCCCCCCCCC[C@H](CC(=O)NC(C(=O)O)C(C)O)O*; X4 = CC(=O)Nc1cc(CC(N[*:1])C(=O)[*:2])ccc1O; X2 = NC(=O)CC(O)C(N[*:1])C(=O)[*:2]; Hyp = O=C(O)[C@@H]1C[C@@H](O)CN1; X1 = O=C(C1C(O)CCN1[*:1])[*:2]; ξY = NC(Cc1ccc(O)cc1)C(=O)O; ξHyp = O=C(O)C1CC(O)CN1; ξOrn = NCCCC(N)C(=O)O; ξT = CC(O)C(N)C(=O)O; ξV = CC(C)C(N)C(=O)O; ξA = CC(N)C(=O)O

Tests used:
[1] = test system: Aspegillus fumigatus CF1003; assay: In vitro antifungal activity, broth micro-dilution; assay type: cell-based; conditions: YNB with 0.2% agarose, 1-2 days at 35° C.
Method: (§1) The in vitro antifungal activities of the representative Aerothricins of the present study were evaluated by determining the 50% inhibitory concentration (IC50), which was calculated as the lowest concentration of an antifungal to inhibit the growth of fungus to […] turbidity compared with the drug-free control growth spectrophotometrically.
(§2) The IC50 values were determined by the broth micro-dilution procedure based on NCCLS Approved Standard with the following minor modifications (National Committee for Clinical Laboratory Standards. (1997) Reference method for broth dilution antifungal susceptibility testing for yeasts. Approved standard. Document M27-A). Yeast Nitrogen Base (YNB; Difco Lab.) supplemented with 1% glucose and 0.25% K2HPO4 was used as testing medium for yeast, the same medium solidified with 0.2% low melting point agarose (BRL) was used for filamentous fungi. Inoculum size was 1-3×10^4 cells/ml, and incubation was performed for 1-2 days at 35° C.

Candida albicans CY1002 = assay: In vitro antifungal activity, broth micro-dilution; assay type: cell-based; conditions: YNB medium, 1-2 days at 35° C.
Method: as §1, §2

Fusarium solani CF1088 = assay: In vitro antifungal activity, broth micro-dilution; assay type: cell-based; conditions: YNB with 0.2% agarose, 1-2 days at 35° C.
Method: as §1, §2

Candida albicans = assay: In vivo antifungal efficacy, systemic candidiasis in mice; parameters: species or system Crj: CD-1 (ICR) mice; conditions: i.v., b.i.d×1 day followed by q.d.×2 days; from survival on day 14
Method: Mice of a conventional immunocompetent mouse strain, Crj: CD-1 (ICR) were used for experimental infection models of systemic candidiasis. 4 weeks old Crj: CD-1 (ICR) mice were used for systemic candidiasis by injecting Candida albicans 5×10^6 conidia/mouse via the tail vein. Treatments were given twice (0, 4 h after infection) on the first day and once daily on following 2 days for systemic candidiasis (b.i.d×1 day followed by q.d.×2 days), intravenously (i.v.). 50% of effective dose (ED50) values was calculated from the survival number at each dose on day 14.

mouse hepatocytes = assay: In vitro hepatotoxicity test; assay type: cell-based; conditions: mouse hepatocyte monolayers exposed 1 day, morphological evaluation
Description: The mouse hepatocytes were isolated by a collagenase digestion and cultured in microtest plates. The hepatocyte monolayers were exposed to the test Aerothricins in the culture system for 1 day. After the culture period, the hepatocytes were observed under a microscope and evaluated morphologically. The degree of the morphological alteration (degeneration) of the hepatocytes by the test Aerothricins were compared with WF 11243 and LY303366.

Solubility = conditions: solvents in which soluble

Compound | In vitro Antifungal activity, IC50 [1] | In vitro Antifungal activity, IC50 (Candida albicans CY1002) | In vitro Antifungal activity, IC50 (Fusarium solani CF1088) | In vivo antifungal activity against systemic candidiasis in mice, ED50 on day 14 (Candida albicans) | Cytotoxicity to hepatocyte (mouse hepatocytes) | also measured
CCCCCCCOc1ccc(-c2ccc(CC[C@@H]3CC(=O)NC(C(C)O)C(=O)NC(C)C(=O)NC(Cc4ccc(O)cc4)C(=O)NC(C(C)C)C(=O)N4CC(O)CC4C(=O)NC(C(C)O)C(=O)NC(C(C)O)C(=O)N4CCC(O)C4C(=O)NC(C(O)CC(N)=O)C(=O)NCC(=O)NC(C(C)O)C(=O)NC(CCCN)C(=O)N3)cc2)cc1 (stereo partly shown) [Aerothricin 43] ([ξT][ξA][ξY][ξV][ξHyp][ξT][ξT][X1][X2]G[ξT][ξOrn]; linker N-C via X3) | 0.04 µg/mL | 0.05 µg/mL | 0.70 µg/mL |  |  | 
CC(C)CCCOc1ccc(-c2ccc(CC[C@@H]3CC(=O)NC(C(C)O)C(=O)NC(C)C(=O)NC(Cc4ccc(O)cc4)C(=O)NC(C(C)C)C(=O)N4CC(O)CC4C(=O)NC(C(C)O)C(=O)NC(C(C)O)C(=O)N4CCC(O)C4C(=O)NC(C(O)CC(N)=O)C(=O)NCC(=O)NC(C(C)O)C(=O)NC(CCCN)C(=O)N3)cc2)cc1 (stereo partly shown) [Aerothricin 45] ([ξT][ξA][ξY][ξV][ξHyp][ξT][ξT][X1][X2]G[ξT][ξOrn]; linker N-C via X5) |  |  |  | 0.3 mg/kg | >100 µg/mL | 
CC1NC(=O)C(C(C)O)NC(=O)C[C@@H](CCc2ccc(-c3ccc(OCCCc4ccccc4)cc3)cc2)NC(=O)C(CCCN)NC(=O)C(C(C)O)NC(=O)CNC(=O)C(C(O)CC(N)=O)NC(=O)C2C(O)CCN2C(=O)C(C(C)O)NC(=O)C(C(C)O)NC(=O)C2CC(O)CN2C(=O)C(C(C)C)NC(=O)C(Cc2ccc(O)cc2)NC1=O (stereo partly shown) [Aerothricin 46] ([ξT][ξA][ξY][ξV][ξHyp][ξT][ξT][X1][X2]G[ξT][ξOrn]; linker N-C via X8) |  |  |  | 0.4 mg/kg |  | 
CCCCCCCCCOc1ccc2cc(CC[C@@H]3CC(=O)NC(C(C)O)C(=O)NC(C)C(=O)NC(Cc4ccc(O)cc4)C(=O)NC(C(C)C)C(=O)N4CC(O)CC4C(=O)NC(C(C)O)C(=O)NC(C(C)O)C(=O)N4CCC(O)C4C(=O)NC(C(O)CC(N)=O)C(=O)NCC(=O)NC(C(C)O)C(=O)NC(CCCN)C(=O)N3)ccc2c1 (stereo partly shown) [Aerothricin 53] ([ξT][ξA][ξY][ξV][ξHyp][ξT][ξT][X1][X2]G[ξT][ξOrn]; linker N-C via X10) |  |  |  |  | >100 µg/mL | 
CCCCCCCOc1ccc(-c2ccc(CC[C@@H]3CC(=O)NC(C(C)O)C(=O)NC(C)C(=O)NC(Cc4ccc(O)c([N+](=O)[O-])c4)C(=O)NC(C(C)C)C(=O)N4CC(O)CC4C(=O)NC(C(C)O)C(=O)NC(C(C)O)C(=O)N4CCC(O)C4C(=O)NC(C(O)CC(N)=O)C(=O)NCC(=O)NC(C(C)O)C(=O)NC(CCCN)C(=O)N3)cc2)cc1 (stereo partly shown) [Aerothricin 55] ([ξT][ξA][ξTyr(3-NO2)][ξV][ξHyp][ξT][ξT][X1][X2]G[ξT][ξOrn]; linker N-C via X3) | 0.04 µg/mL | 0.04 µg/mL | 0.39 µg/mL | <0.3 mg/kg |  | 
CCCCCCCOc1ccc(-c2ccc(CC[C@@H]3CC(=O)NC(C(C)O)C(=O)NC(C)C(=O)NC(Cc4ccc(O)c(NC(C)=O)c4)C(=O)NC(C(C)C)C(=O)N4CC(O)CC4C(=O)NC(C(C)O)C(=O)NC(C(C)O)C(=O)N4CCC(O)C4C(=O)NC(C(O)CC(N)=O)C(=O)NCC(=O)NC(C(C)O)C(=O)NC(CCCN)C(=O)N3)cc2)cc1 (stereo partly shown) [Aerothricin 57] ([ξT][ξA][X4][ξV][ξHyp][ξT][ξT][X1][X2]G[ξT][ξOrn]; linker N-C via X3) | 0.05 µg/mL | 0.14 µg/mL | 1.30 µg/mL |  |  | 
CCCCCCCCCCCCC[C@H](CC(=O)NC(C(=O)O)C(C)O)OC(=O)C(CCCN)NC(=O)C(NC(=O)CNC(=O)C(NC(=O)C1C(O)CCN1C(=O)C(NC(=O)C(NC(=O)C1CC(O)CN1C(=O)C(N)C(C)C)C(C)O)C(C)O)C(O)CC(N)=O)C(C)O (stereo partly shown) [Compound (IX)] (H-[ξV][ξHyp][ξT][ξT][X1][X2]G[ξT][ξOrn]-X6) |  |  |  |  |  | Solubility (Solubility): Soluble: water, methanol, dimethylsulfoxide
CCCCCOc1ccc(-c2ccc(-c3ccc(C(=O)N[C@H]4C[C@@H](O)[C@@H](O)NC(=O)[C@@H]5[C@@H](O)[C@@H](C)CN5C(=O)[C@H]([C@@H](C)O)NC(=O)[C@H]([C@H](O)[C@@H](O)c5ccc(O)cc5)NC(=O)[C@@H]5C[C@@H](O)CN5C(=O)[C@H]([C@@H](C)O)NC4=O)cc3)cc2)cc1 [LY303366, reference compound] ({pTerphenylCO(4''-OnC5H11)}-[Orn(4R-OH,5R-OH)]T[Hyp][hTyr(3S-OH,4S-OH)]T[Pro(3S-OH,4S-Me)]; lactam 1-C) |  |  |  |  | 10 µg/mL | 
